# Results published in patent US20090012087A1, “New Aza-Bicyclohexane Compounds Useful As Inhibitors Of Thrombin” (ASTRAZENECA AB, priority 2007, published 2009).
# Counter-ions that a name gives are not always drawn.
# Molecular target: T1, Human α-thrombin (Homo sapiens, UniProt P00734)
# T1 construct: Human α-thrombin; purchased Sigma Chemical Co. or Hematologic Technologies
# Assay: Test A: Determination of Thrombin Inhibition with a Chromogenic, Robotic Assay
# Format: biochemical
# Conditions: chromogenic substrate S-2366 0.30 mmol/L, α-thrombin 0.020 NIHU/mL, 40 minutes incubation at 37° C.
# Procedure: Determination of Thrombin Inhibition with a Chromogenic, Robotic Assay
# The thrombin inhibitor potency is measured with a chromogenic substrate method, in a Plato 3300 robotic microplate processor (Rosys AG, CH-8634 Hombrechtikon, Switzerland), using 96-well, half volume microtitre plates (Costar, Cambridge, Mass., USA; Cat No 3690). Stock solutions of test substance in DMSO (72 μL), 0.1-1 mmol/L, are diluted serially 1:3 (24+48 μL) with DMSO to obtain ten different concentrations, which are analysed as samples in the assay. 2 μL of test sample is diluted with 124 μL assay buffer, 12 μL of chromogenic substrate solution (S-2366, Chromogenix, Mölndal, Sweden) in assay buffer and finally 12 μL of α-thrombin solution (Human α-thrombin, Sigma Chemical Co. or Hematologic Technologies) in assay buffer, are added, and the samples mixed. The final assay concentrations are: test substance 0.00068-133 μmol/L, S-2366 0.30 mmol/L, α-thrombin 0.020 NIHU/mL. The linear absorbance increment during 40 minutes incubation at 37° C. is used for calculation of percentage inhibition for the test samples, as compared to blanks without inhibitor.
row,SMILES,IC50 [nM]
1,"N[C@H](CC1CCCCC1)C(=O)N1CC2CC1(C(=O)NCc1cc(Cl)ccc1-n1cnnn1)C2 [Example 68, 2-((R)-2-Amino-3-cyclohexyl-propionyl)-2-aza-bicyclo[2.1.1]hexane-1-carboxylic acid 5-chloro-2-tetrazol-1-yl-benzylamide hydrochloride]",4
2,"O=C([C@H](O)C1CCCCC1)N1CC[C@@H]2C[C@@]21C(=O)NCc1cc(Cl)ccc1-n1cnnn1 [Example 27, (1S,5R)-2-((R)-2-Cyclohexyl-2-hydroxy-acetyl)-2-aza-bicyclo[3.1.0]hexane-1-carboxylic acid-5-chloro-2-tetrazol-1-yl-benzylamide]",7
3,"O=C(NCc1cc(Cl)ccc1-n1cnnn1)[C@@H]1C[C@@H]2C[C@@H]2N1C(=O)[C@H](O)c1cc(Cl)cc(OC(F)F)c1 [Example 37, (1S,3S,5S)-2-[(R)-2-(3-Chloro-5-difluoromethoxy-phenyl)-2-hydroxy-acetyl]-2-aza-bicyclo[3.1.0]hexane-3-carboxylic acid 5-chloro-2-tetrazol-1-yl-benzylamide]",4
4,"O=C(NCc1cc(Cl)ccc1-n1cnnn1)[C@@H]1C[C@@H]2C[C@@H]2N1C(=O)C1(O)CCCc2ncccc21 (stereo partly drawn) [Example 77, (1S,3S,5S)-2-(5-Hydroxy-5,6,7,8-tetrahydro-quinoline-5-carbonyl)-2-aza-bicyclo[3.1.0]hexane-3-carboxylic acid 5-chloro-2-tetrazol-1-yl-benzylamide]",9

# Next, values leading:
row,IC50 [nM],SMILES
1,3,"O=C(NCc1cc(Cl)ccc1-n1cnnn1)[C@@H]1[C@H]2C[C@H]2CN1C(=O)[C@H](O)c1cccc(Cl)c1 [Example 57, (1S,2S,5R)-3-[(R)-2-(3-Chloro-phenyl)-2-hydroxy-acetyl]-3-aza-bicyclo[3.1.0]hexane-2-carboxylic acid 5-chloro-2-tetrazol-1-yl-benzylamide]"
2,420,O=C(NCc1cc(Cl)ccc1-n1cnnn1)[C@@H]1C[C@@H]2C[C@@H]2N1C(=O)C(O)Cn1cncn1 (some centres unmarked) [Example 51]
3,15,"CC(C)(C1CC1)C(O)C(=O)N1C[C@H]2C[C@H]2[C@H]1C(=O)NCc1cc(Cl)ccc1-n1cnnn1 (stereo partly drawn) [Example 61, (1R,2S,5S)-3-(3-Cyclopropyl-2-hydroxy-3-methyl-butyryl)-3-aza-bicyclo[3.1.0]hexane-2-carboxylic acid 5-chloro-2-tetrazol-1-yl-benzylamide]"
4,1,"CC(C)(C)C[C@@H](N)C(=O)N1C[C@@H]2C[C@@H]2[C@H]1C(=O)NCc1cc(Cl)ccc1-n1cnnn1 [Example 18, (1S,2S,5R)-3-((R)-2-Amino-4,4-dimethyl-pentanoyl)-3-aza-bicyclo[3.1.0]hexane-2-carboxylic acid 5-chloro-2-tetrazol-1-yl-benzylamide hydrochloride]"
5,2,"CC(C)(C)C[C@@H](N)C(=O)N1[C@H](C(=O)NCc2cc(Cl)ccc2-n2cnnn2)C[C@@H]2C[C@@H]21 [Example 20, (1S,3S,5S)-2-((R)-2-Amino-4,4-dimethyl-pentanoyl)-2-aza-bicyclo[3.1.0]hexane-3-carboxylic acid 5-chloro-2-tetrazol-1-yl-benzylamide hydrochloride]"
6,9,"O=C(NCc1cc(Cl)ccc1-n1cnnn1)[C@@H]1[C@H]2C[C@H]2CN1C(=O)[C@H](O)c1cc(Cl)cc(OC(F)F)c1 [Example 36, (1S,2S,5R)-3-[2-((R)-3-Chloro-5-difluoromethoxy-phenyl)-2-hydroxy-acetyl]-3-aza-bicyclo[3.1.0]hexane-2-carboxylic acid 5-chloro-2-tetrazol-1-yl-benzylamide]"
7,29,"NC(C(=O)N1C[C@@H]2C[C@@H]2[C@H]1C(=O)NCc1cc(Cl)ccc1-n1cnnn1)c1ccccc1F (stereo partly drawn) [Example 74, (1S,2S,5R)-3-[2-Amino-2-(2-fluoro-phenyl)-acetyl]-3-aza-bicyclo[3.1.0]hexane-2-carboxylic acid 5-chloro-2-tetrazol-1-yl-benzylamide]"
